From article PMC5085761 (International Journal of Molecular Sciences, 2016)

Experiments:
Assay type in all cases: in vitro ADME
OAT3 = molecular target: T1, OAT3 (Homo sapiens, UniProt Q8TCC7); experiment: Inhibition of tracer uptake in OAT3-expressing cells
T1 construct: host or cells: HEK293
T1 sequence (Q8TCC7 1-542): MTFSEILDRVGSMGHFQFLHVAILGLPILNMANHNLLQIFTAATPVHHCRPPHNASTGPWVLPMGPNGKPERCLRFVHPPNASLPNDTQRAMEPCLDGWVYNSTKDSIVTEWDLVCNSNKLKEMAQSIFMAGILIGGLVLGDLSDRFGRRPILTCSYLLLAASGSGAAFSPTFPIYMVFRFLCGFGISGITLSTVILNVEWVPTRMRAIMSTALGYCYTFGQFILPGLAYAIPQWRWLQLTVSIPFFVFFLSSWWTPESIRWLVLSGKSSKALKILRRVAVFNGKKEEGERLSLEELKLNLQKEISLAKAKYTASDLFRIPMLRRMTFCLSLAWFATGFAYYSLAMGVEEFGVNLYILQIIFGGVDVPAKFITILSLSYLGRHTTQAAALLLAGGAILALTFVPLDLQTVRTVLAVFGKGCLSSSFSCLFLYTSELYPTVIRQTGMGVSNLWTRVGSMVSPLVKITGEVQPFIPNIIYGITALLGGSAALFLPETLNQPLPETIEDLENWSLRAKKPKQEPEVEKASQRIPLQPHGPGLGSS
Experimental: (§1) For the SLC transporter experiments, Mock Flp-in-293 cells (Flp/mock), OAT1-expressing Flp-in-293 cells (Flp/OAT1), mock HEK293 cells (HEK/mock), and OATP1B3-expressing HEK293 cells (HEK/OATP1B3) were obtained from Kanazawa University (Ishikawa, Japan). Briefly, Flp-in-293 and HEK293 cells were transfected with the appropriate plasmid DNA and selected using antibiotics (hygromycin or G-418). All cell lines were cultured in DMEM (Life Technologies Japan) supplemented with 10% (v/v) fetal bovine serum (American Type Culture Collection) and antibiotics (100 U/mL penicillin and 100 μg/mL streptomycin (Life Technologies Japan) for mock cells, 0.2 mg/mL hygromycin for Flp/OAT1 cells, and 1.2 mg/mL G-418 (Roche Diagnostics K.K., Tokyo, Japan) for HEK/OATP1B3 cells) at 37 °C under an atmosphere containing 5% CO2. […]
(§2) The experiments were performed as described previously, with minor modifications. […] The cells were lysed in 0.3 mL of 0.1N NaOH at room temperature, after which the radioactivity of each aliquot was measured as described above. The protein concentration of the cell lysate was determined with a VersaMax microplate reader (Molecular Devices Japan K.K., Osaka, Japan) or SpectraMax i3x (Molecular Devices Japan K.K.; only for OATP1B1) using a BCA Protein Assay Kit (Thermo Fisher Scientific, Kanagawa, Japan). Tracer uptake was expressed as pmol/mg protein. […]

OATP1B3 [1] = molecular target: T2, OATP1B3 (Homo sapiens, UniProt Q9NPD5); experiment: Inhibition of tracer uptake in OATP1B3-expressing cells; settings: OATP1B3, tracer [3H]E2G 0.1 µM, 100 µM–10 mM fluciclovine
T2 construct: host or cells: HEK293
T2 sequence (Q9NPD5 1-702): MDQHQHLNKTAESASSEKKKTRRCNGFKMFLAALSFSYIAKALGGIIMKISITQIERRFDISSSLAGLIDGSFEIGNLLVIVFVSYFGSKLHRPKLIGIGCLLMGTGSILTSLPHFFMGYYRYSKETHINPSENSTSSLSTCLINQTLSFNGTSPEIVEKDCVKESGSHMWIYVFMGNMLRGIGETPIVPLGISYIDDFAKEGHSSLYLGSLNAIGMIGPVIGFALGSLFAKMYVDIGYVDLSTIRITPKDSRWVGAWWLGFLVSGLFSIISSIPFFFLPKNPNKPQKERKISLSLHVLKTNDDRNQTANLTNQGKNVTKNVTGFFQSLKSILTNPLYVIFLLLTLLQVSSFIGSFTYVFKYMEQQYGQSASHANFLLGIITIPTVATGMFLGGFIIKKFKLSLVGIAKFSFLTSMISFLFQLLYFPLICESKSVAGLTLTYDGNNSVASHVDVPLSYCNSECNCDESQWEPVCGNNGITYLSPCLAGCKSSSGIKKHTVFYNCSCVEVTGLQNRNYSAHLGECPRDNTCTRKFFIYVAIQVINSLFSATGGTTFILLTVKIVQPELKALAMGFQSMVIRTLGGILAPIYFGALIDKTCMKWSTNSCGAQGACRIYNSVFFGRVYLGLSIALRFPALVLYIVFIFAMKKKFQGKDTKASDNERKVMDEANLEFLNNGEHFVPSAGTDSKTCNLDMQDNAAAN
Experimental: as §1, §2

OATP1B3 [2] = molecular target: T2, OATP1B3; experiment: [14C]fluciclovine uptake by OATP1B3-expressing cells; settings: OATP1B3 cells vs mock cells
Experimental: as §1, §2

inhibition by fluciclovine at millimolar concentrations observed (OAT3; OAT3, tracer [3H]ES 1 µM, 100 µM–10 mM fluciclovine)	OAT3-mediated ES uptake (OAT3; in the presence of 10 mM fluciclovine)	inhibition by fluciclovine at millimolar concentrations observed (OATP1B3 [1])	Compound	drug transporter-mediated uptake (OATP1B3 [2])
not	increased	not	N[C@]1(C(=O)O)C[C@@H](F)C1 [fluciclovine]	–
–	–	–	N[14C]1(C(=O)O)CC(F)C1 (stereo not drawn) [[^14C]fluciclovine, trans-1-amino-3-fluoro[1-^14C]cyclobutanecarboxylic acid]	negligible
